# Columns and labels:
# [1] = test system: antibodies in sera from SARS patients (sera 1a, 1b, 2, 6, 37, 62, London, SARS-yellow, SARS-green); type: binding, human; parameters: Binding of serum 6 to linear peptides of protein X1 of SARS-CoV Urbani / Binding of serum 37 to linear peptides of protein X1 of SARS-CoV Urbani / Binding of serum 6 to looped/cyclic peptide (PEPSCAN-ELISA) / Binding of serum 37 to looped/cyclic peptide (PEPSCAN-ELISA) / Binding of serum 37 to looped/cyclic peptides of protein X1 of SARS-CoV Urbani / Binding of serum 6 to linear peptides of protein X2 / Binding of serum 37 to linear peptides of protein X2 / Binding of serum 37 to looped/cyclic peptides of protein X2 of SARS-CoV Urbani / Binding of serum 6 to linear peptides of protein M of SARS-CoV Urbani / Binding of serum 37 to linear peptides of protein M of SARS-CoV Urbani / Binding of serum 6 to looped/cyclic peptides of protein M of SARS-CoV Urbani / Binding of serum 37 to looped/cyclic peptides of protein M of SARS-CoV Urbani / Binding of serum 6 to linear peptides of protein X3 of SARS-CoV Urbani / Binding of serum 37 to linear peptides of protein X3 of SARS-CoV Urbani / Binding of serum 37 to looped/cyclic peptides of protein X3 of SARS-CoV Urbani / Binding of serum 6 to linear peptides of protein X4 of SARS-CoV Urbani / Binding of serum 37 to linear peptides of protein X4 of SARS-CoV Urbani / Binding of serum 37 to looped/cyclic peptides of protein X4 of SARS-CoV Urbani / Binding of serum 6 to linear peptides of protein X5 of SARS-CoV Urbani / Binding of serum 37 to linear peptides of protein X5 of SARS-CoV Urbani / Binding of serum 37 to looped/cyclic peptides of protein X5 of SARS-CoV Urbani / Binding of serum 6 to linear peptides of protein N of SARS-CoV Urbani / Binding of serum 37 to linear peptides of protein N of SARS-CoV Urbani / Binding of serum 6 to linear peptide (PEPSCAN-ELISA) / Binding of serum 1a to looped/cyclic peptides of protein N of SARS-CoV Urbani / Binding of serum 1b to looped/cyclic peptides of protein N of SARS-CoV Urbani / Binding of serum 2 to looped/cyclic peptides of protein N of SARS-CoV Urbani / Binding of serum 6 to looped/cyclic peptides of protein N of SARS-CoV Urbani / Binding of serum 37 to looped/cyclic peptides of protein N of SARS-CoV Urbani / Binding of serum 62 to looped/cyclic peptides of protein N of SARS-CoV Urbani / Binding of serum London to looped/cyclic peptides of protein N of SARS-CoV Urbani / Binding of serum SARS-green to looped/cyclic peptides of protein N of SARS-CoV Urbani: unit not given here
# [2] = test system: control sera (pooled serum of ten healthy LUMC hospital workers; commercial negative donor pooled serum from the Dutch bloodbank); type: binding, human; parameters: Binding of Control serum LUMC to linear peptides / Binding of Control serum Blood-bank to linear peptides / Binding of Control serum LUMC to looped peptides / Binding of Control Serum Blood-Bank to Looped peptides / Binding of Control serum LUMC to linear peptides of the protein M of SARS-CoV Urbani / Binding of Control serum Blood-bank to linear peptides of the protein M of SARS-CoV Urbani / Binding of Control serum LUMC to looped peptides of the protein M of SARS-CoV Urbani / Binding of Control Serum Blood-Bank to Looped peptides of the protein M of SARS-CoV Urbani: unit not given here
# [3] = test system: rabbit serum obtained by immunizing a rabbit with the SARS-CoV strain Frankfurt 1; type: binding; parameters: Binding of a rabbit serum to linear peptides / Binding of a rabbit serum to looped peptides / Rabbit serum linear peptides / Rabbit serum looped peptides / Binding of a rabbit serum to linear peptides of protein N of SARS-CoV Urbani (Rabbit serum linear peptides) / Binding of a rabbit serum to looped/cyclic peptides of protein N of SARS-CoV Urbani (Rabbit serum looped peptides): unit not given here
sequence,measurement,setting,value
CALGKVLPFHRWHTM,Binding of serum 1a to linear peptides of protein X5 of SARS-CoV Urbani,[1],0.7
same,Binding of serum 1a to looped/cyclic peptides of protein X5 of SARS-CoV Urbani,[1],0.4
same,Binding of serum 1b to linear peptides of protein X5 of SARS-CoV Urbani,[1],0.5
same,Binding of serum 1b to looped/cyclic peptides of protein X5 of SARS-CoV Urbani,[1],0.2
same,Binding of serum 2 to linear peptides of protein X5 of SARS-CoV Urbani,[1],0.7
same,Binding of serum 2 to looped/cyclic peptides of protein X5 of SARS-CoV Urbani,[1],0.6
same,Binding of serum 6 to linear peptides of protein X5 of SARS-CoV Urbani,[1],0.7
same,Binding of serum 6 to looped/cyclic peptides of protein X5 of SARS-CoV Urbani,[1],0.4
same,Binding of serum 37 to linear peptides of protein X5 of SARS-CoV Urbani,[1],0.8
same,Binding of serum 37 to looped/cyclic peptides of protein X5 of SARS-CoV Urbani,[1],0.5
same,Binding of serum 62 to linear peptides of protein X5 of SARS-CoV Urbani,[1],0.7
same,Binding of serum 62 to looped/cyclic peptides of protein X5 of SARS-CoV Urbani,[1],0.3
same,Binding of serum London to linear peptides of protein X5 of SARS-CoV Urbani,[1],0.7
same,Binding of serum London to looped/cyclic peptides of protein X5 of SARS-CoV Urbani,[1],0.2
same,Binding of serum SARS-green to linear peptides of protein X5 of SARS-CoV Urbani,[1],0.7
same,Binding of serum SARS-green to looped/cyclic peptides of protein X5 of SARS-CoV Urbani,[1],0.4
same,Binding of serum SARS-yellow to linear peptides of protein X5 of SARS-CoV Urbani,[1],0.1
same,Binding of serum SARS-yellow to looped/cyclic peptides of protein X5 of SARS-CoV Urbani,[1],0.4
same,Binding of Control Serum Blood-Bank to Looped peptides,[2],0.4
same,Binding of Control serum Blood-bank to linear peptides,[2],0.8
same,Binding of Control serum LUMC to linear peptides,[2],0.7
same,Binding of Control serum LUMC to looped peptides,[2],0.6
same,Rabbit serum linear peptides,[3],0.6
same,Rabbit serum looped peptides,[3],1.0
CELYHYQECVRGTTV,Binding of serum 1a to linear peptides of protein X4 of SARS-CoV Urbani,[1],0.8
same,Binding of serum 1a to looped/cyclic peptides of protein X4 of SARS-CoV Urbani,[1],0.8
same,Binding of serum 1b to linear peptides of protein X4 of SARS-CoV Urbani,[1],0.7
same,Binding of serum 1b to looped/cyclic peptides of protein X4 of SARS-CoV Urbani,[1],0.4
same,Binding of serum 2 to linear peptides of protein X4 of SARS-CoV Urbani,[1],0.5
same,Binding of serum 2 to looped/cyclic peptides of protein X4 of SARS-CoV Urbani,[1],0.8
same,Binding of serum 6 to linear peptides of protein X4 of SARS-CoV Urbani,[1],0.6
same,Binding of serum 6 to looped/cyclic peptides of protein X4 of SARS-CoV Urbani,[1],0.5
same,Binding of serum 37 to linear peptides of protein X4 of SARS-CoV Urbani,[1],0.9
same,Binding of serum 37 to looped/cyclic peptides of protein X4 of SARS-CoV Urbani,[1],0.8
same,Binding of serum 62 to linear peptides of protein X4 of SARS-CoV Urbani,[1],0.8
same,Binding of serum 62 to looped/cyclic peptides of protein X4 of SARS-CoV Urbani,[1],0.6
same,Binding of serum London to linear peptides of protein X4 of SARS-CoV Urbani,[1],0.9
same,Binding of serum London to looped/cyclic peptides of protein X4 of SARS-CoV Urbani,[1],0.3
same,Binding of serum SARS-green to linear peptides of protein X4 of SARS-CoV Urbani,[1],0.7
same,Binding of serum SARS-green to looped/cyclic peptides of protein X4 of SARS-CoV Urbani,[1],0.2
same,Binding of serum SARS-yellow to linear peptides of protein X4 of SARS-CoV Urbani,[1],0.6
same,Binding of serum SARS-yellow to looped/cyclic peptides of protein X4 of SARS-CoV Urbani,[1],0.4
same,Binding of Control Serum Blood-Bank to Looped peptides,[2],0.5
same,Binding of Control serum Blood-bank to linear peptides,[2],0.5
same,Binding of Control serum LUMC to linear peptides,[2],0.5
same,Binding of Control serum LUMC to looped peptides,[2],0.6
same,Rabbit serum linear peptides,[3],0.4
same,Rabbit serum looped peptides,[3],0.2

# From patent publication US20070128217A1 (priority 2003, published 2007)
